Where a name gives a salt, the structure may show the parent alone. Read-outs that look alike come from different tables or passages of the source.
Columns and labels:
[1] = tested on: C-26 colon carcinomas; assay: In vivo antitumor efficacy, mice inoculated i.p. with C-26 colon carcinoma; set-up: species or system BALB/c mice; details: i.v. treatment, DXN 8 mg/kg
Experimental: In vivo evaluation of antitumor efficacy of Liposomal DXN: All the experimental procedures which make use of animals (mice) were done in accordance with the standards required by the Institutional Animal Care and Use Committee of the Hebrew University and Hadassah Medical Organization and approved by the Committee.
To test therapeutic efficacy, female BALB/c mice (in the weight range of 16-20 g) were injected i.p. with 1*10^6 C-26 colon carcinomas. The viability of these cells was >90% by trypan blue exclusion. Therapeutic efficacy of i.v. injected SSL (DXN-C6Cer-SSL) containing both DXN in intraliposome aqueous phase (DXN/PL ratio of 0.2) and 11.5 mole % of C6Cer in comparison to Doxil (alone) and free DXN was studied. In all 3 treatments DXN dose was 0.16 mg/mouse (8 mg/kg) and dose of C6Cer injected into mice treated with DXN-C6Cer-SSL was 0.25 mg.mouse (12.5 mg/kg). Intravenous treatment began at day 4 after tumor cell inoculation and was repeated three times at 5-days intervals. The median survival and percentage increase in life span of treated (T) over control (C) animals (Tx100/C)-100 were calculated.
Statistical analysis: Median survival times and the statistical significance of differences in survival curves were calculated by means of the log-rank test using Prism Software (GraphPad, San Diego, Calif.). Differences were considered significant at P<0.05.

[2] = tested on: doxorubicin-resistant human breast carcinoma M-109 cell line; assay: Cytotoxicity, methylene blue (MB) staining assay; assay type: cell-based; details: M-109 doxorubicin-resistant cells
Experimental: Cytotoxicity studies: The cytotoxicity of C6Cer-DXN-SSL against doxorubicin-resistant human breast carcinoma M-109 cell line was tested by the methylene blue (MB) staining assay [Gorodetsky, R. et al. Int. J. Cancer. 75:635-642 (1998)]. A known number of exponentially growing cells in 200 μL of medium were plated in 96-microwell, flat-bottomed plates. For each of the variants tested, 4 wells were used. Following 24 hr of incubation in culture, different concentrations of drugs or formulations were added to each well containing untreated cells.
Cells were exposed to drugs for 96 hr. […] The MB bound to the fixed cells was extracted by incubation at 37° C. with 200 μL of 0.1 N HCl for 1 h, and the net optical density of the dye in each well was determined by a plate spectrophotometer (Labsystems Multyskan Bichromatic, Finland) at 620 nm.
Statistical analysis: Median survival times and the statistical significance of differences in survival curves were calculated by means of the log-rank test using Prism Software (GraphPad, San Diego, Calif.). […] For assessment of synergy, the combination index (CI) was determined by median effect analysis [Chow T C, Talalay P. Quantitative analysis of dose-effect relationships: the combined effects of multiple drugs or enzyme inhibitors. […]

[3] = Doxorubicin pharmacokinetics and biodistribution in tumor-bearing mice; assay type: in vivo, BALB/c mice
Experimental: Pharmacokinetics and biodistribution studies in tumor-bearing mice: Eight to 10-week-old BALB/c female mice, obtained through the Animal Breeding House of the Hebrew University (Jerusalem, Israel), were housed at Hadassah Medical Center at a specific pathogen free (SPF) facility with food and water ad libitum. Each mouse was injected with one inoculum of tumor cells (1×10^6 murine C-26 cells) subcutaneously into the left flank. 7 days later SSL formulations containing both DXN (0.16 mg/mouse) and C6Cer, (0.25 mg/mouse), Doxil (0.16 mg/mouse) and free DXN (0.16 mg/mouse) were injected i.v. At 1, 4, 24 and 48 hr after injection, the animals were anesthetized with 4% chloral hydrate (Fluka, USA), bled by eye inoculation, and plasma was separated from blood cells by 5 min centrifugation at 5,000 rpm. Various organs (liver, heart, lungs, kidneys) and tumor were removed. Each time period in each treated group consisted of 3 mice. Samples were frozen at −80° C. until assayed. Thereafter, plasma samples were diluted in 90% isopropanol containing 10% 0.75N HCl in order to dissolve all liposome's lipids and release the DXN to the solution, and concentration of DXN was determined according to a standard calibration curve of DXN (excitation at 485±10 mu and emission at 590±10 nm) from fluorescence intensity using Synergy HT plate reader in its fluorescence mode (Bio-Tek, Vermont, USA).
Doxorubicin pharmacokinetics and biodistribution studies in tumor-bearing mice: BALB/c female mice were injected with one inoculum of tumor cells (1×10^6 C-26 cells) subcutaneously into the left flank. Seven days later, liposomal formulations containing both DXN and C6Cer [HSPC:^2kPEG-DSPE:Chol:C6Cer (76:7.5:5:11.5)-DXN]; Doxil or Free DXN were injected i.v., and bled by eye inoculation, plasma was isolated and 50 μl was taken from plasma for further analysis. DXN levels were determined after “extraction” of plasma with acidic isopropanol as described in Methods.

COc1cccc2c1C(=O)c1c(O)c3c(c(O)c1C2=O)C[C@@](O)(C(=O)CO)C[C@@H]3O[C@H]1C[C@H](N)[C@H](O)[C@H](C)O1 [free DXN, 8S,10S)-10-[(3-amino-2,3,6-trideoxy-a-L-lyxo-hexopyranosyl)oxy]-8-glycolyl-7,8,9,10-tetrahydro-6,8,11-trihydroxy-1-methoxy-5,12-naphthacenedione hydrochloride]
survival 80 days after treatment initialization ([1]; FIG. 3): 0%
median survival ([1]; untreated 16 day): 35 days
IC50 ([2]; M109, agent given alone, 96 hr exposure, read-out: IC50): 2200 nM
IC50 ([2]; M109, combined with liposomal C6Cer at its IC10, 96 hr, read-out: IC50 of DXN in the presence of IC10 concentration of liposomal C6Cer): 900 nM
DXN remaining in plasma ([3]; 1 hr post-injection, i.v. 0.16 mg DXN/mouse, FIG. 4A): 3%
DXN level in heart tissue ([3]; 4 hr post-treatment, i.v., FIG. 4B): 5.7%
DXN level in tumor tissue ([3]; 24 hr post-injection (maximum), i.v., s.c. C-26 tumor, FIG. 4B): 1%
DXN remaining in circulation ([3]; plasma, 48 hr post-injection, i.v. 0.16 mg DXN/mouse, FIG. 4A): below detection

Reference: patent US20080058274A1, “Combination Therapy” (priority 2004, published 2008)
